Molecules are shown by their SMILES.

The source of these data is patent US10729668B2, “Ketobutyrate compounds and compositions for treating age-related symptoms and diseases” (The Regents of the University of California, priority 2014, dated 2020).

For experiment [1], the system named is C2C12 Cells. The experiment is described as follows: Oxygen consumption rate (OCR) in C2C12 cells, Seahorse XF-24. Format: cell-based, mouse. To be noted: 1 hour treatment. Here is the method: Measurement of oxygen consumption rates (OCR). OCR measurements were made using a Seahorse XF-24 analyzer (Seahorse Bioscience). C2C12 Cells were seeded in Seahorse XF-24 cell culture microplates at 30,000 cells per well in DMEM media supplemented with 10% FBS and 10 mM glucose, and incubated at 37° C. and 5% CO2 overnight. Treatment with α-KB or DMSO (vehicle control) was for 1 hour. Cells were washed in unbuffered DMEM medium (pH 7.4, 10 mM glucose) just before measurements, and maintained in this buffer with indicated concentrations of α-KB. OCR was measured three times under basal conditions and normalized to protein concentration per well.

A further experiment has as its system ATP synthase. Kind of experiment: ATP synthase inhibition.
For a further experiment, the system named is male mice. The experiment is described as follows: In vivo ischemia reperfusion injury, coronary artery occlusion. More on the design: species or system mouse. To be noted: 800 μM single bolus via tail vein at onset of reperfusion, 24 hours reperfusion, n=6. Here is the method:
The LAD is occluded in male mice for 30 minutes followed by a 24 hour reperfusion. At the onset of reperfusion one bolus of α-KB or PBS was applied via tail vein.
To examine the cardioprotective role of α-KB, an in vivo model of ischemia reperfusion injury was used. The left coronary artery was occluded for 30 minutes in male mice followed by 24 hours of reperfusion. One single bolus of PBS (vehicle control) or α-KB (800 μM) was applied through the tail vein at the onset of reperfusion (FIG. 9A).

The next experiment deals with T1, pyruvate dehydrogenase (Bos taurus, UniProt A7MB35+P11966).
T1 construct: purchased Abcam ab110338 (lysate); ab109902 (assay kit); host or cells: bovine heart mitochondrial lysate
The experiment is described as follows: Pyruvate Dehydrogenase (PDH) Enzyme Activity Microplate Assay. Format: biochemical, bovine. As to conditions: vehicle mean as 100 percent. Here is the method: To examine the effect of α-KB on pyruvate dehydrogenase, the Pyruvate Dehydrogenase (PDH) Enzyme Activity Microplate Assay Kit (Abcam, ab109902) was used. The assay was performed according to the protocol provided. Detergent was added to bovine heart mitochondrial lysate (Abcam, ab110338) and followed by an incubation at 4° C. for 20 minutes to release PDH. The sample was then centrifuged at 14,000×g for 10 minutes. Supernatant was diluted with the incubation buffer and added to a PDH antibody-coated 96-well plate. After 3 hours incubation followed by 2× wash with stabilizer buffer, the wells were added with 200 μL of reaction mix containing 10, 20, 50, 200, and 800 μM α-KB or vehicle control (distilled water). Each condition was performed in triplicates. Kinetic measurements of absorbance at 450 nm with 1 minute intervals were taken, and PDH activity was calculated from the slope of the absorbance to time. The readings were normalized to vehicle mean (as 100 percent).

The subject of experiment [2] is C2C12 Cells. Kind of experiment: Cellular ROS measurement with H2DCF-DA. Format: cell-based, mouse. To be noted: 3 hours of drug treatment. How it is done:
Measurement of ROS. C2C12 cells were seeded in 96-well plates at density of 250,000 cells/mL. Reactive oxygen species (ROS) levels were measured using 2′, 7′-dichlorodihydrofluorescein diacetate (H2DCF-DA) after 3 hours of drug treatment.

A further experiment deals with C. elegans. The experiment is described as follows: Lifespan of adult C. elegans on treatment plates. The class given is in vivo, Caenorhabditis elegans. How it is done:
C. elegans were synchronized by performing either a timed egg lay or an egg preparation (mix <100 gravid worms in 70 μl M9 buffer, 25 μl bleach, and 5 μl 10 N NaOH). Once the worms reached adulthood, they were picked onto NGM treatment plates containing 1.5% dimethyl sulfoxide (DMSO; Sigma D8418), 49.5 μM 5-fluoro-2′-deoxyuridine (FUDR, Sigma F0503), 50 μg/ml ampicillin, and α-KB (Sigma K401). Plates containing α-KB were adjusted to pH 6.0 (i.e., the same pH as the control plates) by the addition of NaOH. Treatment plates were seeded with OP50 E. coli as the C. elegans food source. […] Worms were moved to new plates every 4 days. All lifespan experiments were conducted at 20° C.

The subject of another experiment is NADH dehydrogenase. Kind of experiment: Electron flow assay, isolated liver mitochondria. Format: biochemical, mouse. How it is done:
Animal studies were performed under approved UCLA animal research protocols. Mitochondria from 3-month-old C57BL/6 mice were isolated. Briefly, livers were extracted, minced at 4° C. in MSHE+BSA (70 mM sucrose, 210 mM mannitol, 5 mM HEPES, 1 mM EGTA, and 0.5% fatty acid free BSA, pH 7.2), and rinsed several times to remove blood. All subsequent steps were performed on ice or at 4° C. The tissue was disrupted in 10 volumes of MSHE+BSA with a glass Dounce homogenizer (5-6 strokes) and the homogenate was centrifuged at 800×g for 10 minutes to remove tissue debris and nuclei. The supernatant was decanted through a cell strainer and centrifuged at 8,000×g for 10 minutes. […] Isolated mitochondrial respiration was measured by running coupling and electron flow assays as described. […] After basal readings, the sequential injections were as follows: 2 μM rotenone (Complex I inhibitor), 10 mM succinate (Complex II substrate), 4 μM antimycin A (Complex III inhibitor), and 10 mM/100 μM ascorbate/tetramethylphenylenediamine (Complex IV substrate). […]

For experiment [3], the target named is TOR (target of rapamycin) (Homo sapiens, UniProt P42345). The experiment is described as follows: TOR inhibition.

T1 sequence (A7MB35 30-390): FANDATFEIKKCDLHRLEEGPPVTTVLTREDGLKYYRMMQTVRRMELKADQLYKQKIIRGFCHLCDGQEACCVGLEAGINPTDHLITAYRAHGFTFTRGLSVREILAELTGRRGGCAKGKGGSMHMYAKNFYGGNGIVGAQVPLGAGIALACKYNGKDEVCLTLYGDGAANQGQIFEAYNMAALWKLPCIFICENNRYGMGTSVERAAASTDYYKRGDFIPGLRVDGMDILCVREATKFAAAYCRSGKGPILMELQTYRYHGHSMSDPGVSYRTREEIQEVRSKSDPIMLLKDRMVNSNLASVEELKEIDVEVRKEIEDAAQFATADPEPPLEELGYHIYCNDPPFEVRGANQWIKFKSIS
T1 sequence (P11966 31-359): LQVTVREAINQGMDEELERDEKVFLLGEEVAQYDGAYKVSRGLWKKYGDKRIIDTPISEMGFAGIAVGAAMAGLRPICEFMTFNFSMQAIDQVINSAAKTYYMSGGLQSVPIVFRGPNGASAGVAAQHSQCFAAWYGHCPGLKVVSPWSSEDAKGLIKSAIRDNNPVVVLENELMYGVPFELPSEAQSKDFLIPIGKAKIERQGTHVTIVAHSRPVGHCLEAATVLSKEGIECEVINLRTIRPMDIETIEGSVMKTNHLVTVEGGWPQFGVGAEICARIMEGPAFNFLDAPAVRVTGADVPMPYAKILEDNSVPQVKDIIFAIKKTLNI
T1 sequence (P11180 87-647 partner): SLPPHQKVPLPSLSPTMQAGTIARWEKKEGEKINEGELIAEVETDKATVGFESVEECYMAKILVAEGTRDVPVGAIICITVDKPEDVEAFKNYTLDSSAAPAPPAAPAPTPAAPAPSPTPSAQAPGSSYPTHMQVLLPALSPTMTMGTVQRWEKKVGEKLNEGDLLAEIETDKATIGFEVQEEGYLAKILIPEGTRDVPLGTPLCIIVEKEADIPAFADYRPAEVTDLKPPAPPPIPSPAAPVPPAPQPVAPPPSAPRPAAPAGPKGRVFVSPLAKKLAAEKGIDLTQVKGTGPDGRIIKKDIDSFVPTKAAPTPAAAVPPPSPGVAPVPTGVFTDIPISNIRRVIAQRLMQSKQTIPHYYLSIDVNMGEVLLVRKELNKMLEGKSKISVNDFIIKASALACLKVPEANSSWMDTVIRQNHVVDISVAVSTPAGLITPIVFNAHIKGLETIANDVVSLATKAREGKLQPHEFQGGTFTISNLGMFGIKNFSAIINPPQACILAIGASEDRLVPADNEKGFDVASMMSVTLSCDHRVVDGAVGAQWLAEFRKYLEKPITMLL
T1 sequence (P22439 54-501 partner): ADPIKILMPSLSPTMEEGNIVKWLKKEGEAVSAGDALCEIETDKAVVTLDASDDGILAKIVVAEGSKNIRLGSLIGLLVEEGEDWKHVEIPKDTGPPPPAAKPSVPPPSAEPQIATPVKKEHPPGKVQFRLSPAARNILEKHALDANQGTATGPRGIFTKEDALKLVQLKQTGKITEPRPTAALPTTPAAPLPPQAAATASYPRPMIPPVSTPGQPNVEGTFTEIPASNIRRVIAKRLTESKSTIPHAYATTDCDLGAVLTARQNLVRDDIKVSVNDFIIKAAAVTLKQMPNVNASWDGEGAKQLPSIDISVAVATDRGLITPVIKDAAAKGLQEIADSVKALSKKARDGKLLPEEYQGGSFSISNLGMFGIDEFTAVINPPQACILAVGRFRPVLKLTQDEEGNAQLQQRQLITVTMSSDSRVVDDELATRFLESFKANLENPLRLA
T1 sequence (F1N206 36-509 partner): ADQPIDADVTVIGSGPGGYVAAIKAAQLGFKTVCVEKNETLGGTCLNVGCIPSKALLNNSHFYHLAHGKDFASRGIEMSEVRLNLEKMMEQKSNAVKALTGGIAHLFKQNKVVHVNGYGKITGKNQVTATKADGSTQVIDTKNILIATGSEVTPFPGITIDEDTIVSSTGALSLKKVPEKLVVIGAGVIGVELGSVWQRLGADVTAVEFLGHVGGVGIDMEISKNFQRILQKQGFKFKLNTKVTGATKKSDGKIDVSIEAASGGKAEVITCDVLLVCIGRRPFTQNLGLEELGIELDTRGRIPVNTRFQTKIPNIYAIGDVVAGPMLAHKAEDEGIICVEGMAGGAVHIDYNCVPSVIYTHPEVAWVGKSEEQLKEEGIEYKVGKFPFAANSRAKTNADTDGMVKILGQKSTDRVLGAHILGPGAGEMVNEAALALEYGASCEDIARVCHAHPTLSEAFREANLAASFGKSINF

In the case of `CCC(=O)C(=O)O` [α-KB, α-ketobutyrate], the basal respiration entry in the experiment on C2C12 Cells [1] is on record as “inhibited”. For the same molecule, the “maximal respiration (mitochondrial respiration upon FCCP treatment)” value with C2C12 Cells [1] was “inhibited”. The “inhibition of ATP synthase” value in the experiment on ATP synthase is given as “does not inhibit”. The “ratio of infarct size to AAR” value in the experiment with male mice was 31.2±3.6. Besides, the “normalized PDH activity (percentage)” value at pyruvate dehydrogenase (200 μM) is 68.0±11.8 percentage; at pyruvate dehydrogenase (800 μM), 41.6±7.89 percentage. Moreover, the “cellular ROS” value in the experiment with C2C12 Cells [2] is “increases the cellular ROS”. Also, in the experiment with C. elegans (adult C. elegans, 20° C.), the “lifespan as compared to untreated control subjects” value is on record as “extends the lifespan”. The “potency relative to α-KG in treating, inhibiting, or reducing aging and age-related symptoms” value in the experiment on C. elegans (in vivo) is listed as “about 1 fold”. For the same molecule, in the experiment on NADH dehydrogenase, the “respiration in electron flow assay” value is recorded as “only NADH dehydrogenase related respiration is inhibited”. The “inhibition of TOR” value in experiment [3] is on record as “does not inhibit”.
